# Data from patent US20230059136A1, “THE COMPOUNDS AND COMPOSITIONS FOR TREATING CONDITIONS ASSOCIATED WITH NLRP ACTIVITY” (Novartis AG, priority 2018, published 2023).
# System: IL-1β production in PMA-differentiated THP-1 cells
# Assay: IL-1β production in PMA-differentiated THP-1 cells stimulated with gramicidin (hTHP-1 assay containing 2% fetal bovine serum)
# Format: cell-based, human
# Settings: Homo sapiens, THP-1, Table B1; 2% fetal bovine serum; cells printed as numeric bound; read-out: hTHP-1 IC50 (Average IC50 of compounds in hTHP-1 assay)
# Method in brief: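 IL-1β release was read by HTRF on supernatants of 50,000 PMA-primed (20 ng/ml, 16-18 h) THP-1 cells/well in 2% FBS medium. Cells saw compound for 1 h (11-point titration from 100 μM, 0.37% DMSO) before a 2 h gramicidin (5 μM) challenge.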
row,IC50 [µM],Compound
1,> 30,"CC(C)(O)c1ncc(S(N)(=O)=NC(=O)Cc2cc3c(c4c2CCC4)CCC3)s1 (centres unmarked) [Example 242, N-(amino(2-(2-hydroxypropan-2-yl)thiazol-5-yl)(oxo)-λ^6-sulfaneylidene)-2-(1,2,3,6,7,8-hexahydro-as-indacen-4-yl)acetamide]"
2,> 30,"CC(C)c1cc2c(c(C(C)C)c1CC(=O)N=[S@@](N)(=O)c1cnc(C(C)(C)O)s1)COC2(C)C [Example 340, (R)-N-(amino(2-(2-hydroxypropan-2-yl)thiazol-5-yl)(oxo)-λ^6-sulfaneylidene)-2-(4,6-diisopropyl-1,1-dimethyl-1,3-dihydroisobenzofuran-5-yl)acetamide]"

# Same assay, conditions: Homo sapiens, THP-1, Table B1; 2% fetal bovine serum; class symbols; read-out: hTHP-1 IC50 (Average IC50 of compounds in hTHP-1 assay)
row,IC50 [µM],Compound
1,5 to 30,"CC(C)c1cc(C#CC2CCCC2)cc(C(C)C)c1CC(=O)N=S(N)(=O)c1cc(C(C)(C)O)c(-c2ccccc2)s1 (centres unmarked) [Example 240, N-(amino(4-(2-hydroxypropan-2-yl)-5-phenylthiophen-2-yl)(oxo)-λ^6-sulfaneylidene)-2-(4-(cyclopentylethynyl)-2,6-diisopropylphenyl)acetamide]"
2,5 to 30,"CC(C)c1cc(COC2CCCC2)cc(C(C)C)c1CC(=O)N=S(N)(=O)c1cc(C(C)(C)O)n(-c2ccc(F)cc2)n1 (centres unmarked) [Example 241, N-(amino(1-(4-fluorophenyl)-5-(2-hydroxypropan-2-yl)-1H-pyrazol-3-yl)(oxo)-λ^6-sulfaneylidene)-2-(4-((cyclopentyloxy)methyl)-2,6-diisopropylphenyl)acetamide]"
3,5 to 30,"CC(C)c1cc2c(c(C(C)C)c1CC(=O)N=S(N)(=O)c1ccn(C(F)F)n1)COC2 (centres unmarked) [Example 243, N-(amino(1-(difluoromethyl)-1H-pyrazol-3-yl)(oxo)-λ^6-sulfaneylidene)-2-(4,6-diisopropyl-1,3-dihydroisobenzofuran-5-yl) acetamide]"
4,1 to 5,"CCc1c2c(cc(C(C)C)c1CC(=O)N=S(N)(=O)c1cc(C(C)(C)O)cs1)COC2 (centres unmarked) [Example 244, N-(amino (4-(2-hydroxypropan-2-yl)thiophen-2-yl)(oxo)-λ^6-sulfaneylidene)-2-(4-ethyl-6-isopropyl-1,3-dihydroisobenzofuran-5-yl) acetamide]"
5,1 to 5,"CCc1cc2c(c(C(C)C)c1CC(=O)N=S(N)(=O)c1cc(C(C)(C)O)cs1)COC2 (centres unmarked) [Example 245, N-(amino (4-(2-hydroxypropan-2-yl)thiophen-2-yl)(oxo)-λ^6-sulfaneylidene)-2-(6-ethyl-4-isopropyl-1,3-dihydroisobenzofuran-5-yl) acetamide]"
6,0.04 to 0.2,"CC(C)c1cc2c(c(C(C)C)c1CC(=O)N=S(N)(=O)c1sc(C(C)(C)O)cc1F)COC2 (centres unmarked) [Example 246, N-(amino(3-fluoro-5-(2-hydroxypropan-2-yl)thiophen-2-yl)(oxo)-λ^6-sulfaneylidene)-2-(4,6-diisopropyl-1,3-dihydroisobenzofuran-5-yl) acetamide]"
7,1 to 5,"CC(C)c1cc(C#N)c(F)c(C(C)C)c1CC(=O)N=S(N)(=O)c1cc(C(C)(O)CO)n(-c2ccccc2)n1 (centres unmarked) [Example 247, N-(amino(5-(1,2-dihydroxypropan-2-yl)-1-phenyl-1H-pyrazol-3-yl)(oxo)-λ^6-sulfaneylidene)-2-(4-cyano-3-fluoro-2,6-diisopropylphenyl)acetamide]"
8,1 to 5,"CC(C)c1cc(C(F)F)nc(C(C)C)c1CC(=O)N=S(N)(=O)c1sc(CN(C)C)cc1F (centres unmarked) [Example 248, N-(amino(5-((dimethylamino)methyl)-3-fluorothiophen-2-yl)(oxo)-λ^6-sulfaneylidene)-2-(6-(difluoromethyl)-2,4-diisopropylpyridin-3-yl)acetamide]"
9,1 to 5,"CC(C)c1cc2c(c(C(C)C)c1CC(=O)N=S(N)(=O)c1sc(CN(C)C)cc1F)COC2 (centres unmarked) [Example 249, N-(amino(5-((dimethylamino)methyl)-3-fluorothiophen-2-yl)(oxo)-λ^6-sulfaneylidene)-2-(4,6-diisopropyl-1,3-dihydroisobenzofuran-5-yl)acetamide]"
10,5 to 30,CC(C)c1cc(C(F)F)cc(C(C)C)c1CC(=O)N=S(N)(=O)c1ncc(CN(C)C)cc1F (centres unmarked) [Example 250]
11,0.2 to 1,"CC(C)c1cc(COC2CCCC2)cc(C(C)C)c1CC(=O)N=S(N)(=O)c1cnc(C(C)(O)CO)s1 (centres unmarked) [Example 251, N-(amino(2-(1,2-dihydroxypropan-2-yl)thiazol-5-yl)(oxo)-λ^6-sulfaneylidene)-2-(4-((cyclopentyloxy)methyl)-2,6-diisopropylphenyl)acetamide]"
12,1 to 5,"CC(C)c1cc2c(c(C(C)C)c1CC(=O)N=S(N)(=O)c1cnc(C(C)(O)CO)s1)COC2 (centres unmarked) [Example 252, N-(amino(2-(1,2-dihydroxypropan-2-yl)thiazol-5-yl) (oxo)-λ^6-sulfaneylidene)-2-(4,6-diisopropyl-1,3-dihydroisobenzofuran-5-yl)acetamide]"
13,1 to 5,"CC(C)c1cc(-c2ccc3c(c2)CCOC3)cc(C(C)C)c1CC(=O)N=S(N)(=O)c1cnc(C(C)(O)CO)s1 (centres unmarked) [Example 253, N-(amino(2-(1,2-dihydroxypropan-2-yl)thiazol-5-yl) (oxo)-λ^6-sulfaneylidene)-2-(4-(isochroman-6-yl)-2,6-diisopropylphenyl)acetamide]"
14,5 to 30,"CNCc1ccc(S(N)(=O)=NC(=O)Cc2c(C(C)C)cc(C(F)F)nc2C(C)C)cc1 (centres unmarked) [Example 254, N-(amino(4-((methylamino)methyl)phenyl)(oxo)-λ^6-sulfaneylidene)-2-(6-(difluoromethyl)-2,4-diisopropylpyridin-3-yl)acetamide]"
15,5 to 30,"CNCc1ccc(S(N)(=O)=NC(=O)Cc2c(C(C)C)cc(C(F)F)cc2C(C)C)cc1 (centres unmarked) [Example 255, N-(amino(4-((methylamino)methyl)phenyl)(oxo)-λ^6-sulfaneylidene)-2-(4-(difluoromethyl)-2,6-diisopropylphenyl)acetamide]"
16,5 to 30,"CC(C)c1cc2c(c(C(C)C)c1CC(=O)N=S(N)(=O)c1cnc(C(C)(C)O)s1)COC2=O (centres unmarked) [Example 256, N-(amino(2-(2-hydroxypropan-2-yl)thiazol-5-yl) (oxo)-λ^6-sulfaneylidene)-2-(4,6-diisopropyl-1-oxo-1,3-dihydroisobenzofuran-5-yl)acetamide]"
17,1 to 5,"CC(C)c1cc(C(F)F)cc(C(C)C)c1CC(=O)N=S(N)(=O)c1ccc(CN(C)C)cc1 (centres unmarked) [Example 257, N-(amino(4-((dimethylamino)methyl)phenyl) (oxo)-λ^6-sulfaneylidene)-2-(4-(difluoromethyl)-2,6-diisopropylphenyl)acetamide]"
18,1 to 5,"CC(C)c1cc(C(F)F)nc(C(C)C)c1CC(=O)N=S(N)(=O)c1ccc(CN(C)C)cc1 (centres unmarked) [Example 258, N-(amino(4-((dimethylamino)methyl)phenyl) (oxo)-λ^6-sulfaneylidene)-2-(6-(difluoromethyl)-2,4-diisopropylpyridin-3-yl)acetamide]"
19,5 to 30,"CCc1c2c(cc(C(C)C)c1CC(=O)N=S(N)(=O)c1cnc(C(C)(C)O)s1)COC2 (centres unmarked) [Example 259, N-(amino(2-(2-hydroxypropan-2-yl)thiazol-5-yl)(oxo)-λ^6-sulfaneylidene)-2-(4-ethyl-6-isopropyl-1,3-dihydroisobenzofuran-5-yl)acetamide]"
20,5 to 30,"CCc1cc2c(c(C(C)C)c1CC(=O)N=S(N)(=O)c1cnc(C(C)(C)O)s1)COC2 (centres unmarked) [Example 260, N-(amino(2-(2-hydroxypropan-2-yl)thiazol-5-yl)(oxo)-λ^6-sulfaneylidene)-2-(6-ethyl-4-isopropyl-1,3-dihydroisobenzofuran-5-yl)acetamide]"
21,5 to 30,"CC(C)c1cc2c(cnn2C)c(C(C)C)c1CC(=O)N=S(N)(=O)c1cnc(C(C)(C)O)s1 (centres unmarked) [Example 262, N-(amino(2-(2-hydroxypropan-2-yl)thiazol-5-yl)(oxo)-λ^6-sulfaneylidene)-2-(4,6-diisopropyl-1-methyl-1H-indazol-5-yl)acetamide]"
22,1 to 5,"CCc1cc2c(c(C(C)C)c1CC(=O)N=S(N)(=O)c1sc(C(C)(C)O)cc1F)COC2 (centres unmarked) [Example 263, N-(amino(3-fluoro-5-(2-hydroxypropan-2-yl)thiophen-2-yl)(oxo)-λ^6-sulfaneylidene)-2-(6-ethyl-4-isopropyl-1,3-dihydroisobenzofuran-5-yl)acetamide]"
23,0.2 to 1,"CCc1c2c(cc(C(C)C)c1CC(=O)N=S(N)(=O)c1sc(C(C)(C)O)cc1F)COC2 (centres unmarked) [Example 264, N-(amino(3-fluoro-5-(2-hydroxypropan-2-yl)thiophen-2-yl)(oxo)-λ^6-sulfaneylidene)-2-(4-ethyl-6-isopropyl-1,3-dihydroisobenzofuran-5-yl)acetamide]"
24,1 to 5,"CC(C)c1cc2c(c(C(C)C)c1CC(=O)N=S(N)(=O)c1cccc(C(C)(C)O)c1)COC2 (centres unmarked) [Example 266, N-(amino (3-(2-hydroxypropan-2-yl)phenyl)(oxo)-λ^6-sulfaneylidene)-2-(4,6-diisopropyl-1,3-dihydroisobenzofuran-5-yl)acetamide]"
25,5 to 30,"CC(C)c1cc2c(c(C(C)C)c1CC(=O)N=S(N)(=O)c1cnn3c1OCCC3)COC2 (centres unmarked) [Example 267, N-(amino(6,7-dihydro-5H-pyrazolo[5,1-b][1,3]oxazin-3-yl)(oxo)-λ^6-sulfaneylidene)-2-(4,6-diisopropyl-1,3-dihydroisobenzofuran-5-yl)acetamide]"
26,1 to 5,"CC(C)c1ccc(F)c(C(C)C)c1CC(=O)N=S(N)(=O)c1cnn2c1OCCC2 (centres unmarked) [Example 268, N-(amino(6,7-dihydro-5H-pyrazolo[5,1b][1,3]oxazin-3-yl)(oxo)-λ^6-sulfaneylidene)-2-(3-fluoro-2,6-diisopropylphenyl)acetamide]"
27,0.2 to 1,"CC(C)c1cc(F)cc(C(C)C)c1CC(=O)N=[S@](=O)(NC#N)c1ncc(C(C)(C)O)s1 [Example 341, (S)—N-(cyanamido(5-(2-hydroxypropan-2-yl)thiazol-2-yl)(oxo)-λ^6-sulfaneylidene)-2-(4-fluoro-2,6-diisopropylphenyl)acetamide]"
